ChEMBL document CHEMBL3227948, “Preparation and antidiabetic activity of some sulfonylurea derivatives of 3,5-disubstituted pyrazoles” (1979)

System: Mus musculus
Test: Hypoglycemic activity in alloxan-induced diabetic albino mouse assessed as decrease in blood glucose level at 0.4 mmol/kg, po administered 6 days after alloxan injection measured after 2 to 4 hrs by automated glucose oxidase method relative to control
Type: functional

SMILES	inhibition in vivo at 400 µmol/kg [%]
CCNC(=O)NS(=O)(=O)c1ccc(-n2nc(C)cc2C)cc1	< 1
CCCNC(=O)NS(=O)(=O)c1ccc(-n2nc(C)cc2C)cc1	< 1
CCCCNC(=O)NS(=O)(=O)c1ccc(-n2nc(C)cc2C)cc1	2
Cc1cc(C)n(-c2ccc(S(=O)(=O)NC(=O)NC3CCCCC3)cc2)n1	10
Cc1cc(C)n(-c2ccc(S(=O)(=O)NC(=O)NCc3ccccc3)cc2)n1	< 1
Cc1cc(C)n(-c2ccc(S(=O)(=O)NC(=O)NNC(=N)N)cc2)n1	3
CCNC(=O)NS(=O)(=O)c1ccc(-n2nc(C(=O)O)cc2C)cc1	0
CCCNC(=O)NS(=O)(=O)c1ccc(-n2nc(C(=O)O)cc2C)cc1	1
CCCCNC(=O)NS(=O)(=O)c1ccc(-n2nc(C(=O)O)cc2C)cc1	2
Cc1cc(C(=O)O)nn1-c1ccc(S(=O)(=O)NC(=O)NC2CCCCC2)cc1	1
Cc1cc(C(=O)O)nn1-c1ccc(S(=O)(=O)NC(=O)NCc2ccccc2)cc1	0
CCNC(=S)NS(=O)(=O)c1ccc(-n2nc(C)cc2C)cc1	0
C=CCNC(=S)NS(=O)(=O)c1ccc(-n2nc(C)cc2C)cc1	-1
CCCNC(=S)NS(=O)(=O)c1ccc(-n2nc(C)cc2C)cc1	< 1
CCCCNC(=S)NS(=O)(=O)c1ccc(-n2nc(C)cc2C)cc1	1
Cc1cc(C)n(-c2ccc(S(=O)(=O)NC(=S)NC3CCCCC3)cc2)n1	< 2
Cc1cc(C)n(-c2ccc(S(=O)(=O)NC(=S)NCc3ccccc3)cc2)n1	0
Cc1cc(C)n(-c2ccc(S(=O)(=O)NC(=S)Nc3ccccc3)cc2)n1	-3
CCNC(=S)NS(=O)(=O)c1ccc(-n2nc(C(=O)O)cc2C)cc1	-2
C=CCNC(=S)NS(=O)(=O)c1ccc(-n2nc(C(=O)O)cc2C)cc1	-6
CCCNC(=S)NS(=O)(=O)c1ccc(-n2nc(C(=O)O)cc2C)cc1	< 1
CCCCNC(=S)NS(=O)(=O)c1ccc(-n2nc(C(=O)O)cc2C)cc1	< 1
Cc1cc(C(=O)O)nn1-c1ccc(S(=O)(=O)NC(=S)NC2CCCCC2)cc1	1
Cc1cc(C(=O)O)nn1-c1ccc(S(=O)(=O)NC(=S)NCc2ccccc2)cc1	< 2
Cc1cc(C(=O)O)nn1-c1ccc(S(=O)(=O)NC(=S)Nc2ccccc2)cc1	0

System: Mus musculus
Test: Hypoglycemic activity in alloxan-induced diabetic albino mouse assessed as decrease in blood glucose level at 1 mmol/kg, po administered 6 days after alloxan injection measured after 2 to 4 hrs by automated glucose oxidase method relative to control
Type: functional

SMILES	inhibition in vivo at 1000 µmol/kg [%]
CCN1C(=O)CN(S(=O)(=O)c2ccc(-n3nc(C)cc3C)cc2)C1=S	< 1
CCCN1C(=O)CN(S(=O)(=O)c2ccc(-n3nc(C)cc3C)cc2)C1=S	< 1
CCCCN1C(=O)CN(S(=O)(=O)c2ccc(-n3nc(C)cc3C)cc2)C1=S	1
Cc1cc(C)n(-c2ccc(S(=O)(=O)N3CC(=O)N(C4CCCCC4)C3=S)cc2)n1	2
Cc1cc(C)n(-c2ccc(S(=O)(=O)N3CC(=O)N(Cc4ccccc4)C3=S)cc2)n1	1
Cc1cc(C)n(-c2ccc(S(=O)(=O)N3CC(=O)N(c4ccccc4)C3=S)cc2)n1	8
CCN1C(=O)CN(S(=O)(=O)c2ccc(-n3nc(C(=O)O)cc3C)cc2)C1=S	< 1
C=CCN1C(=O)CN(S(=O)(=O)c2ccc(-n3nc(C(=O)O)cc3C)cc2)C1=S	< 1
CCCN1C(=O)CN(S(=O)(=O)c2ccc(-n3nc(C(=O)O)cc3C)cc2)C1=S	1
CCCCN1C(=O)CN(S(=O)(=O)c2ccc(-n3nc(C(=O)O)cc3C)cc2)C1=S	1
Cc1cc(C(=O)O)nn1-c1ccc(S(=O)(=O)N2CC(=O)N(C3CCCCC3)C2=S)cc1	1
Cc1cc(C(=O)O)nn1-c1ccc(S(=O)(=O)N2CC(=O)N(Cc3ccccc3)C2=S)cc1	< 1
C=CCN1C(=O)CN(S(=O)(=O)c2ccc(-n3nc(C)cc3C)cc2)C1=S	4
N=C(N)NC(=N)NCCc1ccccc1 [PHENFORMIN]	21

System: Mus musculus
Test: Hypoglycemic activity in alloxan-induced diabetic albino mouse assessed as decrease in blood glucose level at 1 mmol/kg, po administered 6 days after alloxan injection measured after 1 to 3 hrs by automated glucose oxidase method relative to control
Type: functional

SMILES	inhibition in vivo at 1000 µmol/kg [%]
Cc1cc(C)n(-c2ccc(S(=O)(=O)N3CCC(=O)N(Cc4ccccc4)C3=S)cc2)n1	18
CCN1C(=O)CCN(S(=O)(=O)c2ccc(-n3nc(C)cc3C)cc2)C1=S	4
CCCN1C(=O)CCN(S(=O)(=O)c2ccc(-n3nc(C)cc3C)cc2)C1=S	1
CCCCN1C(=O)CCN(S(=O)(=O)c2ccc(-n3nc(C)cc3C)cc2)C1=S	1
Cc1cc(C)n(-c2ccc(S(=O)(=O)N3CCC(=O)N(C4CCCCC4)C3=S)cc2)n1	4
Cc1cc(C)n(-c2ccc(S(=O)(=O)N3CCC(=O)N(c4ccccc4)C3=S)cc2)n1	< 1
CCN1C(=O)CCN(S(=O)(=O)c2ccc(-n3nc(C(=O)O)cc3C)cc2)C1=S	1
C=CCN1C(=O)CCN(S(=O)(=O)c2ccc(-n3nc(C(=O)O)cc3C)cc2)C1=S	0
CCCN1C(=O)CCN(S(=O)(=O)c2ccc(-n3nc(C(=O)O)cc3C)cc2)C1=S	< 1
CCCCN1C(=O)CCN(S(=O)(=O)c2ccc(-n3nc(C(=O)O)cc3C)cc2)C1=S	2
Cc1cc(C(=O)O)nn1-c1ccc(S(=O)(=O)N2CCC(=O)N(C3CCCCC3)C2=S)cc1	2
Cc1cc(C(=O)O)nn1-c1ccc(S(=O)(=O)N2CCC(=O)N(Cc3ccccc3)C2=S)cc1	16
Cc1cc(C(=O)O)nn1-c1ccc(S(=O)(=O)N2CCC(=O)N(c3ccccc3)C2=S)cc1	1
N=C(N)NC(=N)NCCc1ccccc1 [PHENFORMIN]	21
